Experimental data taken from patent US11945787B2, “Substituted imidazoles for preventing and/or treating cell or tissue necrosis” (Ela Pharma Ltd, priority 2015, dated 2024).
Where a SMILES comes first, the peptide text is derived from it. The star is where a group is joined. MeOSuc = COC(=O)CCC(=O)*; CH2Cl = ClC*

What was measured:
[1] = system: C57BL/6J mice, closed head trauma; experiment: Closed head injury (traumatic brain injury) in mice; format: in vivo, mouse; conditions: for neurological severity score (NSS): 100 μg into cisterna magna 1 min after trauma, 1 hour post injury; for space of necrotic tissue, TTC staining: 100 μg into cisterna magna, untreated traumatized 50%
Procedure: The closed head injury method was used to determine the effect of the elastase inhibitor on the development of brain necrosis and on the neurological status assessed using the neurological severity score (NSS). NSS test was performed 1 hour after trauma. During NSS test, various reflexes, ability to move, beam balance, beam walk and other behavior parameters like seeking and exiting from a cycle were monitored. Development of necrosis was measured by assessing necrotic space in brain slices stained with 2,3,5-triphenyl-2H-tetrazolium chloride (TTC).
C57BL/6J mice weighing 40+4 g (mean±SD) were used in the study. A weight-drop device was used to deliver a shock to the scull resulting in a controlled cerebral injury. Impact was delivered by a silicone-coated 5 mm metal tip extruding from a platform that falls down a frame. This model of cranial injury has been used in previous studies [Feldman Z et al., J Neurosurg (1995) 83:1060-1066; Shapira Y et al., J Neurosurg Anesthesiol (1995) 7:17-25].). All animal procedures and care techniques were approved by the Ben-Gurion University of the Negev Committee for the Ethical Care and Use of Animals in Research.
Mice were prepared for surgery by anesthetization with isoflurane and allowed to breathe spontaneously. Maintenance of adequate anesthesia for the experimental procedure was confirmed by loss of corneal reflexes. Once the corneal reflexes were abolished, a midline scalp incision was made and the scalp and underlying muscles were moved laterally. Closed head trauma (CHT) was delivered to the skull over the frontal portion of the left cerebral hemisphere. 1 minute after the trauma 100 μg of elastase inhibitor II or III in its vehicle (DMSO solution), were injected intracerebraspinaly by direct delivery into the cisterna magna. The vehicle itself was previously found to have no effect.
In addition to the wild type C57BL/6J mice, neutrophil elastase knockout mice strain B6.129X1-Elane were also examined. All procedures were approved by the Ethics Committee of Ben-Gurion University of Negev.

[2] = system: elastase-like activity; experiment: Elastase-like activity in lysates of KCN-treated U-937 cells (MAAPV substrate); format: biochemical, human; conditions: for induction of elastase-like enzymatic activity in intact cells: treatment of intact cells
[3] = system: PC12 cells; experiment: KCN-induced necrosis of PC12 cells, LDH release; format: cell-based, rat; conditions: for KCN-induced necrotic cell death assessed by LDH release: PC12, KCN 5 hours, FIGS. 6, 7A-B; for inhibition of necrosis induced by KCN at high concentrations / effect of inhibitor by itself on PC-12 cells: up to 300 μM; for effect of inhibitor by itself on PC-12 cells: without KCN
Procedure: The rat pheochromocytoma PC12 cell line was propagated in DMEM medium (Beit Haemek, Israel), supplemented with 5% heat-inactivated calf serum, 10% heat-inactivated horse serum, 2 mM L-glutamine, 100 U/ml penicillin and 100 μg/ml streptomycin. PC12 cells in logarithmic phase were seeded at a concentration of 1.2×10^5/well in 96-well plates and incubated overnight.
Thereafter, the cells were washed twice and maintained in RPMI-1640 (U-937cells) and DMEM (PC-12 cells) glucose-free medium, supplemented with 2 mM pyruvate and 10% dialyzed FCS for one hour. Then cells were treated with or without KCN (Merck, Germany) at the indicated concentrations for 7 hours (U-937 cells), or for 5 hours (PC12 cells).
Elastase inhibitors II (MeOSuc-AAPA-CMK) and elastase inhibitor III (MeOSuc-AAPV-CMK) were purchased from Calbiochem-Novabiochem, USA. Compound Gly-Phe diazomethylketone was purchased from MP Biomedicals, USA. All the compounds disclosed in Table 1 hereinabove were purchased from ChemDiv, San Diego, CA. The compounds were dissolved in DMSO and were administered 30 min before addition of the cell death inducer. The final concentration of DMSO, added to all samples, was 0.1%, which had no effect by itself siRNA and cell transfection
The amount of LDH released from lysed cells is a sensitive measure of cell death. Necrotic cell death was measured in 96-well plates using Promega CytoTox 96 LDH assay kit. LDH content from the cells lysed in 0.1% Triton X-100 for 10 min was used as an index of total LDH. The LDH released in culture medium was used as an index of necrotic cell death and the percentage from total LDH was calculated. The protection by the inhibitor was calculated based on comparing percentage of LDH release in the presence and in the absence of the inhibitor. The inhibitors were also added to totals, blanks and controls. Absorbance at 490 nm was measured by ELISA reader (BioTec).
These compounds were tested for their ability to inhibit necrosis induced by KCN in PC12 cells. The necrotic mode of cell death in this system was validated as previously described. PC12 cells were challenged with KCN as described above. The protective results of the compounds against KCN-induced necrosis assessed using LDH release method are shown below in Table 5. The IC50 values of these inhibitors is in the range of tens to single nanomolar.

[4] = system: PC12 cells; experiment: Rescue of KCN-treated PC12 cells, XTT viability up to 48 h; format: cell-based, rat; conditions: 5 h KCN, then full DMEM 24 or 48 hours; FIG. 7C
[5] = system: C57BL/6J mice, acetaminophen hepatotoxicity; experiment: APAP-induced liver toxicity in mice; format: in vivo, mouse; conditions: IP 4 hours after APAP 300 mg/kg; measured 24 hours; dose dependent
Procedure: Wild type C57BL/6J mice weighing 23+3 grams were used, 6 mice per treatment. The mice were obtained from Harlan (Israel). All animal procedures and care techniques were approved by the Ben-Gurion University of the Negev Committee for the Ethical Care and Use of Animals in Research. Mice were fast for 16h prior to administration of a single intraperitoneal (i. p.) dose of acetaminophen (N-acetyl-p-aminophenol) APAP (300 mg/kg). 4 hours after the APAP injection, the mice were injected i. p. with the tested compound, dissolved in vehicle (20% DMSO in PBS). The control mice were injected with the vehicle only. 24h after APAP injection, the mice were sacrificed and blood collected from the heart. Heparin was used as an anti-clotting additive for plasma collection. The plasma samples were centrifuged at 4000 g at room temperature for 10 min. The supernatant was collected for measurement of ALT and AST levels. The enzyme levels were measured with an autoanalyzer in Soroka's Biochemistry Medical Center.

[6] = system: PC12 cells; experiment: siRNA transfection, KCN-induced necrosis of PC12 cells, LDH release; format: cell-based, rat; conditions: PC12, 5 hours KCN; FIG. 4C
[7] = system: Cathepsin C; experiment: Cathepsin C activity in lysates of siRNA-treated cells exposed to KCN; format: cell-based; conditions: KCN 10 mM 30 minutes; FIG. 5B
[8] = system: elastase-like activity; experiment: Elastase-like activity in lysates of siRNA-treated cells exposed to KCN; format: cell-based; conditions: KCN 10 mM 30 minutes; FIG. 5A
[9] = system: U-937 cells; experiment: siRNA transfection, KCN-induced necrosis of U-937 cells, LDH release; format: cell-based, human; conditions: U-937, 7 hours KCN; FIG. 4A

COC(=O)CCC(=O)N[C@@H](C)C(=O)N[C@@H](C)C(=O)N1CCC[C@H]1C(=O)N[C@@H](C)C(=O)CCl [EI II, MeOSuc-AAPA-CMK] (MeOSuc-AAPA-CH2Cl) was tested, and the “neurological severity score (NSS)” value [1] was “significantly reduce neurological damage”, the “space of necrotic tissue, TTC staining” value [1] was 25 % of the damaged hemisphere and the “induction of elastase-like enzymatic activity in intact cells” value [2] was “abrogated the induction”. For the same compound, the “KCN-induced necrotic cell death assessed by LDH release” value [3] was “inhibited in a dose dependent manner”, the “inhibition of necrosis induced by KCN at high concentrations” value [3] was “significantly inhibited necrosis” and the “effect of inhibitor by itself on PC-12 cells” value [3] was “inactive by themselves”. The “cell viability (XTT) after KCN treatment” value [4] was “protective effect”.

With COC(=O)CCC(=O)N[C@@H](C)C(=O)N[C@@H](C)C(=O)N1CCC[C@H]1C(=O)N[C@H](C(=O)CCl)C(C)C [EI III, MeOSuc-AAPV-CMK] (MeOSuc-AAPV-CH2Cl) the “neurological severity score (NSS)” value [1] was “significantly reduce neurological damage”, the “space of necrotic tissue, TTC staining” value [1] was 25 % of the damaged hemisphere and the “inhibition of necrosis-induced elastase-like activity” value ([2]; 100 μM) was “completely inhibited”. The “effect on elastase activity of control cells” value ([2]; 100 μM, control cells) was “slight effect”, the IC50 ([2]; lysates after 10 mM KCN 30 min, FIG. 3, read-out: IC50 of inhibition of necrosis-induced elastase-like activity) was 2740 nM and the “induction of elastase-like enzymatic activity in intact cells” value [2] was “abrogated the induction”. For the same compound, the “KCN-induced necrotic cell death assessed by LDH release” value [3] was “inhibited in a dose dependent manner”, the “inhibition of necrosis induced by KCN at high concentrations” value [3] was “significantly inhibited necrosis” and the “effect of inhibitor by itself on PC-12 cells” value [3] was “inactive by themselves”.

O=C(c1csc(N2CCCCC2)n1)N1CCCC1 [Z601-4253, (2-(piperidin-1-yl)thiazol-4-yl)(pyrrolidin-1-yl)methanone] was tested, and the inhibition at 0.0001 µM ([3]; Rattus norvegicus, PC-12, 5 h, 0.1 nM, KCN, PC12, LDH release (Table 5), read-out: % protection at 0.1 nM) was 29%, the inhibition at 0.001 µM ([3]; Rattus norvegicus, PC-12, 5 h, 1 nM, KCN, PC12, LDH release (Table 5), read-out: % protection at 1 nM) was 34% and the inhibition at 0.01 µM ([3]; Rattus norvegicus, PC-12, 5 h, 10 nM, KCN, PC12, LDH release (Table 5), read-out: % protection At 10 nM) was 61%. The inhibition at 0.1 µM ([3]; Rattus norvegicus, PC-12, 5 h, 0.1 μM, KCN, PC12, LDH release (Table 5), read-out: % protection at 0.1 μM) was 74%, the inhibition at 1 µM ([3]; Rattus norvegicus, PC-12, 5 h, 1 μM, KCN, PC12, LDH release (Table 5), read-out: % protection at 1 μM) was 100% and the “ALT level in blood” value [5] was “significantly reduced”. The “AST level in blood” value [5] was “significantly reduced”.

“siRNA for CELA1: siRNA for CELA1, CGGCAACATGCTGGTCCTTTA (SEQ ID NO: 2), Qiagen (listed as DNA, chemistry not given here)” was tested, and the “protection against cyanide induced cell death, LDH release” value [6] was “significant protective effect”, the “Cathepsin C activity of cell lysates” value [7] was “no effect” and the “elastase-like activity of cell lysates” value [8] was “stable and significant decrease”. The “protection against KCN-induced necrosis, LDH release” value [9] was “partial protection”.

“siRNA for CELA3A: siRNA for CELA3A, CTGCCTTTGGCTGCAACTTCA (SEQ ID NO: 3), Qiagen (listed as DNA, chemistry not given here)” was tested, and the “protection against cyanide induced cell death, LDH release” value [6] was “significant protective effect”, the “Cathepsin C activity of cell lysates” value [7] was “no effect” and the “elastase-like activity of cell lysates” value [8] was “stable and significant decrease”. The “protection against KCN-induced necrosis, LDH release” value [9] was “partial protection”.

For “siRNA for Cathepsin C: siRNA for Cathepsin C silencing, ATGATCTGCATCAGTTGTAAA (SEQ ID NO: 1), Qiagen (listed as DNA, chemistry not given here)”, the “protection against cyanide induced cell death, LDH release” value [6] was “significant protective effect”, the “Cathepsin C activity of cell lysates” value [7] was “stable and significant decrease” and the “protection against KCN-induced necrosis, LDH release” value [9] was “protective effect”.
